# Key:
# P388 = test: transplanted tumor in mice: P388; format: in vivo; settings: every fourth day (three doses)
# Experimental: (§1) The bases of this invention and their salts preparable by the processes disclosed herein are active also in vivo against some but not all transplanted tumors in mice.
# (§2) The following table--Table 2--gives the results of this experiment in which mice bearing the transplanted tumor were treated with a compound of this invention. In the table, column 1 gives the name of the compound; column 2, the name of the tumor; column 3, the dosage given; and column 4, the percent inhibition of tumor growth (I) or prolongation of life (PL). The following dosage regimen was employed: every fourth day (three doses) starting on the first day after inoculation.
# P388/V = test: transplanted tumor in mice: P388/V; format: in vivo; settings: every fourth day (three doses)
# Experimental: as §1, §2
# [1] = tested on: Chinese hamster ovary cells; test: standard mitotic inhibition test employing Chinese hamster ovary cells; format: cell-based; settings: dose 20-2 mcg/ml for accumulation in mitosis; CHO cells
# Description: As previously stated, the compounds of this invention are antimitotics, and can adversely affect the growth of malignant cells. This activity is manifested in a standard mitotic inhibition test employing Chinese hamster ovary cells.
# In the Table, column 1 gives the name of the compound, column 2 gives the dose in mcg/ml for accumulation in mitosis and column 3, the percent mitotic accumulation as a range.
SMILES,"Percent Prolongation of life (PL) (P388; P388, 1.0 mg/kg)","Percent Prolongation of life (PL) (P388; P388, 1.2 mg/kg)","Percent Prolongation of life (PL) (P388; P388, 1.4 mg/kg)",Percent Prolongation of life (PL) (P388/V; 1.5 mg/kg),"Percent Prolongation of life (PL) (P388/V; 2.0 mg/kg, * = below 30, not statistically significant)",percent mitotic accumulation as a range [1]
"CC[C@]1(O)C[C@H]2CN(CCc3c([nH]c4ccccc34)[C@@](C(=O)OC)(c3cc4c(cc3OC)N(C)[C@H]3[C@]5(OC(=O)N(CCS)C5=O)[C@H](O)[C@]5(CC)C=CCN6CC[C@]43[C@@H]65)C2)C1 [4-desacetyl vinblastine 3""-(β-thioethyl)-3-spiro-5""-oxazolidine-2"",4""-dione]",52%,65%,77%,–,–,–
"CC[C@]1(O)C[C@H]2CN(CCc3c([nH]c4ccccc34)[C@@](C(=O)OC)(c3cc4c(cc3OC)N(C)[C@H]3[C@]5(OC(=O)N(CCSSCCNC(=O)OC)C5=O)[C@H](OC(C)=O)[C@]5(CC)C=CCN6CC[C@]43[C@@H]65)C2)C1 [Example 1, Vinblastine 3""-(β-[β-(methoxycarbonylamino)ethyldithio]ethyl)-3-spiro-5""-oxazolidine-2"",4""-dione]",–,–,–,30%,25%,7-10%
"CC[C@]1(O)C[C@H]2CN(CCc3c([nH]c4ccccc34)[C@@](C(=O)OC)(c3cc4c(cc3OC)N(C)[C@H]3[C@]5(OC(=O)N(CCS)C5=O)[C@H](OC(C)=O)[C@]5(CC)C=CCN6CC[C@]43[C@@H]65)C2)C1 [Example 2, Vinblastine 3""-(β-thioethyl)-3-spiro-5""-oxazolidine-2"",4""-dione]",–,–,–,–,–,10-15%
